# Test results: paper PMC6934184, “Selective DNA-PKcs inhibition extends the therapeutic index of localized radiotherapy and chemotherapy” (The Journal of Clinical Investigation, 2019)
# Target: T1, IRAK4 (Homo sapiens, UniProt Q9NWZ3)
# T1 construct: purchased Thermo Fisher Scientific (Life Technologies) SelectScreen
# Experiment: SelectScreen Z'LYTE
# Assay type: biochemical
# Outline: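 Percent values come from Thermo SelectScreen profiling of NU5455, combining activity and binding assays. CSF1R was run in Z'LYTE format at Km app ATP, and CAMK1 in Adapta format with ATP listed at 10.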
# T1 sequence (Q9NWZ3 whole entry): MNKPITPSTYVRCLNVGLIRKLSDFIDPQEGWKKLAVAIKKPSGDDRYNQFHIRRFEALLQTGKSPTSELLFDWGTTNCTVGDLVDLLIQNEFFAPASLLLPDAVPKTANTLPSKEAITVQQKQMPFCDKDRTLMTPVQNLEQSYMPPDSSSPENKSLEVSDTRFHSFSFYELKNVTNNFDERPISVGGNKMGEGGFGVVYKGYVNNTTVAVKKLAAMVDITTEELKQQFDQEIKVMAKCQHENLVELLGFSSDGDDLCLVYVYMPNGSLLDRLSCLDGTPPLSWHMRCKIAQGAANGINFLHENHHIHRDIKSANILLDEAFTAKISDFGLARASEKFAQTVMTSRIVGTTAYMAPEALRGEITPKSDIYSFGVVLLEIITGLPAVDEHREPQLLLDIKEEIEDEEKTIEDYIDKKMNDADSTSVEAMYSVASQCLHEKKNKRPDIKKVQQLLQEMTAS
structure (smiles),measurement,value
CN(C(=O)CN1CCOCC1)c1ccc2sc3c(-c4cccc5c(=O)cc(N6CC7CCC(C6)O7)oc45)cccc3c2c1 [NU5455],inhibition at 1 µM,-20.5%
